Earlier results on four compounds are cited in patent US6172066A, “Dihydropyrimidines and uses thereof” (Synaptic Pharmaceutical Corporation, priority 1997, dated 2001).

The structures appear in SMILES notation. Where two headings read alike, the source gives them in different places.

For data set [1] the following is noted: in addition to its antihypertensive effects; cited from earlier work.
For data set [2] the following is noted: cited from earlier work.

In the case of `Clc1cccc(Cl)c1N=C1NCCN1` [clonidine], in data set [1], the “side effects of clonidine” value was “dry mouth and sedation”.

Consider `CC(COc1ccccc1)N(CCCl)Cc1ccccc1` (stereo not shown) [phenoxybenzamine], for which, in data set [2] (patients with BPH), the “side effects in BPH treatment” value is “significant side effects such as dizziness and asthenia”; the “usefulness in treating BPH” value was “useful in relieving the symptoms of BPH”.

Turning to `COc1cc2nc(N3CCN(C(=O)c4ccco4)CC3)nc(N)c2cc1OC` [prazosin], the “side effects in BPH treatment” value in data set [2] (in vivo) is “untoward side effects”. Also, the “usefulness in treating BPH” value in data set [2] (patients with BPH) is reported as “useful for treating BPH”.

As to `COc1cc2nc(N3CCN(C(=O)C4CCCO4)CC3)nc(N)c2cc1OC` (stereo not shown) [terazosin], in data set [2] (patients with BPH), the “side effects in BPH treatment” value is “untoward side effects” and the “usefulness in treating BPH” value was “useful for treating BPH”.
